The text below walks through data of US20080161274A1, “Compounds and methods for inhibition of bone loss” (Resolvyx Pharmaceuticals, Inc., priority 2006, published 2008).

The test system of assay [1] is mice with established Type II collagen arthritis. Kind of assay: 11 day male DBA/1J mouse established Type II collagen arthritis. The assay is classed as in vivo. As to conditions: for clinical symptoms of arthritis (clinical scoring in the paws) / bone loss (histologic scoring) / pannus formation (histologic scoring): mice n=16; for clinical symptoms of arthritis (clinical scoring in the paws): vs arthritic control, FIG. 2a; for bone loss (histologic scoring) / pannus formation (histologic scoring): FIG. 2b. On the procedure:
Male DBA/1J mice (7-9 weeks old on arrival; at least 7 weeks old at time of first immunization) were housed 5 per cage and were acclimated for enough days after arrival such that all animals were at least 7 weeks old at start of study.
Mice were anesthetized with Isoflurane and given intradermal collagen (2 mg/ml) injections at the base of the tail in a volume of 150 μl (D0 and D21). On days 21-35, onset of arthritis occurred and mice were randomized into treatment groups. Randomization into each group was done after swelling was obviously established in at least one paw, and attempts were made to assure approximately equal mean scores across the groups at time of enrollment. Treatment was initiated after enrollment and continued every day for a total of 10 days as outlined in Table 3. During the ten days of treatment, clinical scores were given for each of the paws (right front, left front, right rear, and left rear) according to the scoring methods provided below.
• 0 normal • 1 1 hind or fore paw joint affected or minimal diffuse erythema and swelling • 2 2 hind or fore paw joints affected or mild diffuse erythema and swelling • 3 3 hind or fore paw joints affected or moderate diffuse erythema and swelling • 4 Marked diffuse erythema and swelling, or 4 digit joints affected • 5 Severe diffuse erythema and severe swelling entire paw, unable to flex digits
All dose solutions were prepared to deliver 10 ml/kg (0.3 ml/30 g mouse). On day 11 of arthritis, animals were euthanized, and both fore and hind limbs with knees were removed, placed into formalin and then processed for microscopy. Following 1-2 days in fixative and then 4-5 days in decalcifier, the joints were processed, embedded, sectioned and stained with toluidine blue. (Only fore and hind paws and knees were initially processed—6 joints/mouse.)
When scoring paws or ankles from mice with lesions of type II collagen arthritis, severity of changes as well as number of individual joints affected must be considered. When only 1-3 joints of the paws or ankles out of a possibility of numerous metacarpal/metatarsal/digit or tarsal/tibiotarsal joints were affected, an arbitrary assignment of a maximum score of 1, 2 or 3 from the scoring scale below was given depending on severity of changes. If more than 3 joints were involved, the full scoring scale below was applied only to the most severely affected/majority of joints.
• 0 Normal • 1 Minimal infiltration of pannus in cartilage and subchondral bone • 2 Mild infiltration with marginal zone destruction of hard tissue in affected joints • 3 Moderate infiltration with moderate hard tissue destruction in affected joints • 4 Marked infiltration with marked destruction of joint architecture, most joints • 5 Severe infiltration associated with total or near total destruction of joint architecture, affects all joints
• 0 Normal • 1 Minimal—small areas of resorption, not readily apparent on low magnification, rare osteoclasts in affected joints • 2 Mild—more numerous areas of resorption, not readily apparent on low magnification, osteoclasts more numerous in affected joints • 3 Moderate—obvious resorption of medullary trabecular and cortical bone without full thickness defects in cortex, loss of some medullary trabeculae, lesion apparent on low magnification, osteoclasts more numerous in affected joints • 4 Marked—Full thickness defects in cortical bone, often with distortion of profile of remaining cortical surface, marked loss of medullary bone, numerous osteoclasts, affects most joints • 5 Severe—Full thickness defects in cortical bone and destruction of joint architecture of all joints
Histologic parameters (mean ±SE) for each group were analyzed for differences using the Chi Square Test and one way ANOVA. Significance was set at p≦0.05.

A further assay deals with rats with CIA. Kind of assay: Rat collagen-induced arthritis (CIA), knee histopathology scoring. The assay is classed as in vivo. The note with it: rats n=9. On the procedure:
Female Lewis rats were anesthetized with 3-5% isoflurane and arthritis was induced by intradermal injection of 0.3 mL (100 μL at three different sites) of an emulsion containing 1.5 mg/mL of type II bovine collagen, CII (Elastin Products Inc., Cat# CM276), in incomplete Freund's adjuvant (IFA) at the base of the tail on day 0 and 6. Control rats were injected with an equal amount of IFA only.
The volume of both hind paws were measured using a water displacement plethysmometer (Ugo Basile, Biological Research Apparatus, Italy), and the onset of arthritis was indicated by increased paw volume, which appeared approximately on day 11 post injection. Both paw volumes and body weights were measured throughout the study every 2-3 days. Nineteen to twenty-one days after CII injection, the rats were euthanized with CO2. Blood was collected by cardiac puncture and serum was saved.
Bovine Type II collagen for tissue culture was purchased from Chondrex (Cat# 2022) and was reconstituted according to the manufacturer's instructions. All data were processed and analyzed by t-test using GraphPad Prism software.
After the animals were euthanized, both hind paws and knees were removed, hind paws were weighed, and the paws and knees were placed in formalin. Following 1-2 days in fixative and 4-5 days in decalcifier, the ankle joints were cut in half longitudinally, and the knees were cut in half in the frontal plane. The joints were then processed, embedded, sectioned and stained with toluidine blue. Collagen arthritic ankles and knees were given scores of 0-5 for inflammation, pannus formation and bone resorption according to the following criteria:
• 0 Normal • 1 Minimal infiltration of inflammatory cells in periarticular tissue • 2 Mild infiltration • 3 Moderate infiltration with moderate edema • 4 Marked infiltration with marked edema • 5 Severe infiltration with severe edema
• 0 Normal • 1 Minimal infiltration of pannus in cartilage and subchondral bone • 2 Mild infiltration (extends over up to ¼ of surface or subchondral area of tibia or femur) • 3 Moderate infiltration (extends over >¼ but <½ of surface or subchondral area of tibia or femur) • 4 Marked infiltration (extends over ½ to ¾ of tibial or femoral surface) • 5 Severe infiltration (covers >¾ of surface)
• 0 Normal • 1 Minimal: minimal to mild loss of toluidine blue staining with no obvious chondrocyte loss or collagen disruption • 2 Mild: mild loss of toluidine blue staining with focal mild (superficial) chondrocyte loss and/or collagen disruption • 3 Moderate: moderate loss of toluidine blue staining with multifocal to diffuse moderate (depth to middle zone) chondrocyte loss and/or collagen disruption • 4 Marked: marked loss of toluidine blue staining with multifocal to diffuse marked (depth to deep zone) chondrocyte loss and/or collagen disruption • 5 Severe: severe diffuse loss of toluidine blue staining with multifocal severe (depth to tide mark) chondrocyte loss and/or collagen disruption on both femur and tibia
• 0 Normal • 1 Minimal: small areas of resorption, not readily apparent on low magnification, rare osteoclasts • 2 Mild: more numerous areas of resorption, definite loss of subchondral bone involving ¼ of tibial or femoral surface (medial or lateral) • 3 Moderate: obvious resorption of subchondral bone involving >¼ but <½ of tibial or femoral surface (medial or lateral) • 4 Marked: obvious resorption of subchondral bone involving ≧½ but <¾ of tibial or femoral surface (medial or lateral) • 5 Severe: distortion of entire joint due to destruction involving >¾ of tibial or femoral surface (medial or lateral)

The mark [2] stands for this setting: 0.5 μg/kg once daily i.v., vs vehicle control.
Setting [3] is: 5.0 μg/kg once daily i.v., vs vehicle control.
[4] abbreviates: 0.3 mg/kg twice daily i.v., days 8 to 19, FIG. 3.

For the molecule `CC[C@@H](O)/C=C/C=C\C[C@@H](O)/C=C/C=C/C=C\[C@@H](O)CCCC(=O)O` [Compound X], the “score of bone damage (histologic scoring in joints)” value in assay [1] (mice n=15, 5 μg/kg twice daily iv, vs vehicle control, FIG. 1) is “significant decrease”. Further, in assay [1] (0.5 μg/kg once daily i.v.), the “clinical symptoms of arthritis (clinical scoring in the paws)” value is on record as “inhibited”. Moreover, in assay [1] (setting [2]), the “bone loss (histologic scoring)” value is “reduced” and the “pannus formation (histologic scoring)” value is recorded as “reduced”. The “clinical symptoms of arthritis (clinical scoring in the paws)” value in assay [1] (5.0 μg/kg once daily i.v.) is recorded as “inhibited”. In addition, in assay [1] (setting [3]), the “bone loss (histologic scoring)” value is listed as “reduced” and the “pannus formation (histologic scoring)” value was “reduced”. Further, in the assay with rats with CIA (setting [4]), the “bone resorption (knee histopathology scoring)” value is recorded as “significant reduction”, the “cartilage damage (knee histopathology scoring)” value is “significant reduction”, the “inflammation (knee histopathology scoring)” value is “significant reduction” and the “pannus (knee histopathology scoring)” value is “significant reduction”. In addition, the knee histopathology scores entry in the assay on rats with CIA (therapeutic dosing, FIG. 3) is on record as “significantly reduced”. In the assay on rats with CIA (therapeutic dosing, FIG. 4), the bone resorption entry is “protected” and the joint damage entry is “protected”.
